This note sets out measurements from ChEMBL document CHEMBL1131362, “Synthesis and anticholinesterase activity of huperzine A analogues containing phenol and catechol replacements for the pyridone ring” (Bioorg Med Chem Lett, 1998).

In assay [1] the target is T1, Acetylcholinesterase (Bos taurus) (UniProt P23795).
T1 sequence (whole entry): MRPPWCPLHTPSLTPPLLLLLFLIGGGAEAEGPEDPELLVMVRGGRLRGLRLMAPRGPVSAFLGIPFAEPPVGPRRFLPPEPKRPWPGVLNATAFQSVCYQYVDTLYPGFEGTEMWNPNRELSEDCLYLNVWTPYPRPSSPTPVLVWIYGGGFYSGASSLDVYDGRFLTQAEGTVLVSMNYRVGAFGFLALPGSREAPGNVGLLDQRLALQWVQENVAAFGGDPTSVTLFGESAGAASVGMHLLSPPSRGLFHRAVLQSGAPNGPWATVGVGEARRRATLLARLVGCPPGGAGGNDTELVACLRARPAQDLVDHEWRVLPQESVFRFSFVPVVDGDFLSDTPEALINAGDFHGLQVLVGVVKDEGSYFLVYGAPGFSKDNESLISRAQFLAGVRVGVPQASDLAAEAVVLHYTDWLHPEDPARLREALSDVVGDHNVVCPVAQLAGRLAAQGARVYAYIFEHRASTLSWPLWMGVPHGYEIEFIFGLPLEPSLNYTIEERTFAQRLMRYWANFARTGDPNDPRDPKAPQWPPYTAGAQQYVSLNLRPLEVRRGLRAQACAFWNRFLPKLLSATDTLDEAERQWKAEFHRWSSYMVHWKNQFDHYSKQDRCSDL
Description: Compound was tested for acetylcholinesterase inhibition at concentration uM; No Inhibition.

The target of assay [2] is T1, Acetylcholinesterase (Bos taurus). The experiment in a line: Compound was tested for acetylcholinesterase inhibitory activity at concentration uM; Inactive.

The source made the active and inactive calls. The rule behind the calls is not given here.

For the molecule `C/C=C1\C2C=C(C)C[C@]1(N)c1ccc(O)c(O)c1C2`, the inhibition entry in assay [1] was “inactive”. On to `C/C=C1\C2C=C(C)C[C@]1(N)c1ccc(O)cc1C2`, for which the inhibition entry in assay [2] is “inactive”.
